# Data taken from ChEMBL document CHEMBL3877252, “Fluorescein hydrazones: A series of novel non-intercalative topoisomerase IIα catalytic inhibitors induce G1 arrest and apoptosis in breast and colon cancer cells” (Eur J Med Chem, 2017).
# Active and inactive are the calls of the source. The rule behind the calls is not given here.
# Experiments:
# [1] = Cell cycle arrest in human T47D cells assessed as accumulation at G1 phase at 10 uM after 20 hrs by DAPI staining-based cell analyzer (reference value: 47 to 50%); type: functional
# [2] = Cell cycle arrest in human T47D cells assessed as increase in p27kip1 level at 10 uM; type: functional, cell-based; conditions: TDE = time-dependent effect
# [3] = target: DNA topoisomerase 2-alpha (Homo sapiens) (UniProt P11388); assay: Inhibition of human topoisomerase-2 alpha assessed as inhibition of relaxation of supercoiled pBR322 plasmid DNA at 20 uM measured after 1 hr by ethidium bromide staining based agarose gel electrophoresis relative to control
# [4] = target: DNA topoisomerase 2-alpha (Homo sapiens) (UniProt P11388); assay: Poison activity at topoisomerase-2 alpha in human T47D cells assessed as DNA damage by measuring DNA tail length at 5 uM measured after 24 hrs by alkaline comet assay; type: cell-based
# [5] = Cell cycle arrest in human T47D cells assessed as decrease in cyclin D1 level measured after 24 hrs; type: functional, cell-based
# [6] = target: T1, DNA topoisomerase 1 (Homo sapiens) (UniProt P11387); assay: Inhibition of human topoisomerase-1 assessed as inhibition of relaxation of supercoiled pBR322 plasmid DNA at 20 uM measured after 1 hr by ethidium bromide staining based agarose gel electrophoresis relative to control
# T1 sequence (whole entry): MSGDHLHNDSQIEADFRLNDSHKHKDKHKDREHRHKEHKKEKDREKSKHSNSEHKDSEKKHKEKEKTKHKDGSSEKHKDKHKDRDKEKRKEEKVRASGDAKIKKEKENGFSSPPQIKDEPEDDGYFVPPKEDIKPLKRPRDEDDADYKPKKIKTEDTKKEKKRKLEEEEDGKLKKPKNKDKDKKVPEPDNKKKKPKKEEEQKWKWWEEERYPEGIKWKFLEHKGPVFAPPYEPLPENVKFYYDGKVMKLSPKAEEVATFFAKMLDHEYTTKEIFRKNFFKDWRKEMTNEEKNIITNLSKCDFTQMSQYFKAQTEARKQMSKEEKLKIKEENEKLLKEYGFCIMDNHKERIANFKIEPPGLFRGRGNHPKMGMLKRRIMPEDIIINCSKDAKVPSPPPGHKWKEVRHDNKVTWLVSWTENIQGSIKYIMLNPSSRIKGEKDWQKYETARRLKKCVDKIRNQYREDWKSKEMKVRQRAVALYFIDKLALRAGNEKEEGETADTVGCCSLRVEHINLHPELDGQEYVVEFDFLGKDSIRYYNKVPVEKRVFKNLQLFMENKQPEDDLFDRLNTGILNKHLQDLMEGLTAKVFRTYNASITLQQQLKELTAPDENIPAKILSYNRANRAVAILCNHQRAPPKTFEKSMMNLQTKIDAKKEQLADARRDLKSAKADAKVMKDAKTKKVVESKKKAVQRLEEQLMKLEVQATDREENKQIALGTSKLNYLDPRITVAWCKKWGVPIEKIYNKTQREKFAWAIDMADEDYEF
# [7] = target: DNA topoisomerase 2-alpha (Homo sapiens) (UniProt P11388); assay: Inhibition of topoisomerase-2 alpha catalytic activity in human T47D cells assessed as appearance of free protein band at 50 uM measured after 2 hrs by Western blot analysis; type: cell-based
# [8] = Cell cycle arrest in human T47D cells assessed as accumulation at G2/M phase at 10 uM after 24 hrs by DAPI staining-based cell analyzer (reference value: 15%); type: functional
# [9] = Cell cycle arrest in human T47D cells assessed as accumulation at S phase at 3 uM after 24 hrs by DAPI staining-based cell analyzer (reference value: 26%); type: functional
# [10] = tested on: T47D; assay: Induction of apoptosis in human T47D cells assessed as increase in cleaved PARP level measured after 24 hrs by Western blot analysis; type: functional, cell-based
# [11] = Antiproliferative activity against human DU145 cells measured after 72 hrs by CCK8 assay; type: functional, cell-based; conditions: DU-145, 72 h
# [12] = Cell cycle arrest in human T47D cells assessed as accumulation at S phase at 10 uM after 24 hrs by DAPI staining-based cell analyzer (reference value: 26%); type: functional
# [13] = Antiproliferative activity against human HCT15 cells measured after 72 hrs by CCK8 assay; type: functional, cell-based; conditions: HCT-15, 72 h
# [14] = target: DNA topoisomerase 2-alpha (Homo sapiens) (UniProt P11388); assay: Inhibition of human topoisomerase-2 alpha assessed as inhibition of relaxation of supercoiled pBR322 plasmid DNA at 100 uM measured after 1 hr by ethidium bromide staining based agarose gel electrophoresis relative to control
# [15] = Cell cycle arrest in human T47D cells assessed as accumulation at G2/M phase at 10 uM after 15 hrs by DAPI staining-based cell analyzer (reference value: 18 to 20%); type: functional
# [16] = tested on: T47D; assay: Induction of apoptosis in human T47D cells assessed as increase in bax level measured after 24 hrs by Western blot analysis; type: functional, cell-based
# [17] = Cell cycle arrest in human T47D cells assessed as accumulation at G2/M phase at 10 uM after 20 hrs by DAPI staining-based cell analyzer (reference value: 18 to 20%); type: functional
# [18] = tested on: T47D; assay: Induction of apoptosis in human T47D cells assessed as decrease in bcl-2 level measured after 24 hrs by Western blot analysis; type: functional, cell-based
# [19] = Cell cycle arrest in human T47D cells assessed as accumulation at S phase at 1 uM after 24 hrs by DAPI staining-based cell analyzer (reference value: 26%); type: functional
# [20] = Antiproliferative activity against human MCF7 cells measured after 72 hrs by CCK8 assay; type: functional, cell-based; conditions: MCF7, 72 h
# [21] = Cell cycle arrest in human T47D cells assessed as accumulation at G1 phase at 10 uM after 10 hrs by DAPI staining-based cell analyzer (reference value: 47 to 50%); type: functional
# [22] = Cell cycle arrest in human T47D cells assessed as accumulation at G2/M phase at 10 uM after 10 hrs by DAPI staining-based cell analyzer (reference value: 18 to 20%); type: functional
# [23] = Cell cycle arrest in human T47D cells assessed as accumulation at G1 phase at 3 uM after 24 hrs by DAPI staining-based cell analyzer (reference value: 51%); type: functional
# [24] = Cell cycle arrest in human T47D cells assessed as accumulation at G1 phase at 1 uM after 24 hrs by DAPI staining-based cell analyzer (reference value: 51%); type: functional
# [25] = Cell cycle arrest in human T47D cells assessed as accumulation at G2/M phase at 3 uM after 24 hrs by DAPI staining-based cell analyzer (reference value: 15%); type: functional
# [26] = Cell cycle arrest in human T47D cells assessed as decrease in cyclin D1 level at 10 uM; type: functional, cell-based; conditions: TDE = time-dependent effect
# [27] = Cell cycle arrest in human T47D cells assessed as accumulation at G1 phase at 10 uM after 15 hrs by DAPI staining-based cell analyzer (reference value: 47 to 50%); type: functional
# [28] = Cell cycle arrest in human T47D cells assessed as accumulation at G2/M phase at 10 uM after 5 hrs by DAPI staining-based cell analyzer (reference value: 18 to 20%); type: functional
# [29] = Cell cycle arrest in human T47D cells assessed as accumulation at G2/M phase at 1 uM after 24 hrs by DAPI staining-based cell analyzer (reference value: 15%); type: functional
# [30] = target: DNA topoisomerase 2-alpha (Homo sapiens) (UniProt P11388); assay: Poison activity at topoisomerase-2 alpha in human T47D cells assessed as DNA damage by measuring DNA tail length at 10 uM measured after 24 hrs by alkaline comet assay; type: cell-based
# [31] = Cell cycle arrest in human T47D cells assessed as accumulation at S phase at 10 uM after 20 hrs by DAPI staining-based cell analyzer (reference value: 22%); type: functional
# [32] = target: T1, DNA topoisomerase 1 (Homo sapiens); assay: Inhibition of human topoisomerase-1 assessed as inhibition of relaxation of supercoiled pBR322 plasmid DNA at 100 uM measured after 1 hr by ethidium bromide staining based agarose gel electrophoresis relative to control
# [33] = Cell cycle arrest in human T47D cells assessed as accumulation at S phase at 10 uM after 15 hrs by DAPI staining-based cell analyzer (reference value: 22%); type: functional
# [34] = Cell cycle arrest in human T47D cells assessed as increase in p27kip1 level measured after 24 hrs; type: functional, cell-based
# [35] = Cell cycle arrest in human T47D cells assessed as accumulation at S phase at 10 uM after 10 hrs by DAPI staining-based cell analyzer (reference value: 22%); type: functional
# [36] = Cell cycle arrest in human T47D cells assessed as accumulation at G1 phase at 10 uM by DAPI staining based cell analyzer; type: functional; conditions: TDE = time-dependent effect
# [37] = Cell cycle arrest in human T47D cells assessed as accumulation at G1 phase at 10 uM after 5 hrs by DAPI staining-based cell analyzer (reference value: 47 to 50%); type: functional
# [38] = Cell cycle arrest in human T47D cells assessed as accumulation at G1 phase at 10 uM after 24 hrs by DAPI staining-based cell analyzer (reference value: 51%); type: functional
# [39] = Cell cycle arrest in human T47D cells assessed as accumulation at S phase at 10 uM after 5 hrs by DAPI staining-based cell analyzer (reference value: 22%); type: functional
# [40] = Antiproliferative activity against human T47D cells measured after 72 hrs by CCK8 assay; type: functional, cell-based
# Chain of DNA topoisomerase 2-alpha (Homo sapiens) (P11388 whole entry): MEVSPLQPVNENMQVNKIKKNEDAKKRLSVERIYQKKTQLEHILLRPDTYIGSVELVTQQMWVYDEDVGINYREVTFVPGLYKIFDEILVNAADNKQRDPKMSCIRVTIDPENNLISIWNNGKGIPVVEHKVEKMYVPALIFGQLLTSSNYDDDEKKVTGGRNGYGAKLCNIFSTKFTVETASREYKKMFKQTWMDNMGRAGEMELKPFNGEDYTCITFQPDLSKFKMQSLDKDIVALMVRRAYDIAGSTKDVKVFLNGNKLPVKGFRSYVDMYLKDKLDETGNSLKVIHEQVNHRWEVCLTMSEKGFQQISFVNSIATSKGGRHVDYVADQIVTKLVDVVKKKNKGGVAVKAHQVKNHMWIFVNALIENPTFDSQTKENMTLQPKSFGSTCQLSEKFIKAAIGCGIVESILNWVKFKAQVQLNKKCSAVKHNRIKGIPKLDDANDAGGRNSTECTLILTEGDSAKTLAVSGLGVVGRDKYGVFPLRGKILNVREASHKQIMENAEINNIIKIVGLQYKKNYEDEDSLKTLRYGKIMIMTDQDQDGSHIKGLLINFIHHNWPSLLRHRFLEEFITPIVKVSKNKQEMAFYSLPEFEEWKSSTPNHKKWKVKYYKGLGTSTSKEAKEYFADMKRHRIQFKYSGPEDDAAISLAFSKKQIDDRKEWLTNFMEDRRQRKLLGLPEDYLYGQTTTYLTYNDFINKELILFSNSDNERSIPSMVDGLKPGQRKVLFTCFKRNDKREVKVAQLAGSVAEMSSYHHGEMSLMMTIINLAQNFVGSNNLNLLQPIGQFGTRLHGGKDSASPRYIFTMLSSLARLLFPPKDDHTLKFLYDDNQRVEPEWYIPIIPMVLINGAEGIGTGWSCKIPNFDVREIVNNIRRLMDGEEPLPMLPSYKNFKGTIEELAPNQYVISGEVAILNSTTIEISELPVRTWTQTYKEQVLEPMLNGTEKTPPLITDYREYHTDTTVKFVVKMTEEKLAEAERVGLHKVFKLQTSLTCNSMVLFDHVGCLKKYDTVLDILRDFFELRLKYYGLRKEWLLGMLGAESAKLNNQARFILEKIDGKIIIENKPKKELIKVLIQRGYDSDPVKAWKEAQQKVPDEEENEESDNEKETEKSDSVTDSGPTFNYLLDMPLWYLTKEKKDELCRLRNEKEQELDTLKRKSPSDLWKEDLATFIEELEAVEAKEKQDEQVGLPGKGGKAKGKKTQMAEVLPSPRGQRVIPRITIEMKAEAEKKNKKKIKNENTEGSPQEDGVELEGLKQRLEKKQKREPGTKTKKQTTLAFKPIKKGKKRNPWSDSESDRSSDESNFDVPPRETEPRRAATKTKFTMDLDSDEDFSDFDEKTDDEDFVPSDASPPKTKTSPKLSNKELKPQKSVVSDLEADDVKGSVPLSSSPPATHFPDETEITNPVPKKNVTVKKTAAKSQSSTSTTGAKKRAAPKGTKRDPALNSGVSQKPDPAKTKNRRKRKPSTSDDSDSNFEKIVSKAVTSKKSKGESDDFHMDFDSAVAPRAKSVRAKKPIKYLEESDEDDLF
inhibition [3],inhibition [7],inhibition [14],SMILES,Activity [1],Activity [2],Activity [4],Activity [5],Activity [8],Activity [9],Activity [10],IC50 [11],Activity [12],IC50 [13],Activity [15],Activity [16],Activity [17],Activity [18],Activity [19],IC50 [20],Activity [21],other results
1.9%,Active,78.7%,CCOc1ccc2c(c1)Oc1cc(O)ccc1C21c2ccccc2C(=O)N1/N=C/c1ccccc1O (centres undefined),62%,Tde,7.76 pixel,Dose-dependent effect,11%,25%,Dose-dependent effect,550 nM,22%,1840 nM,10%,Dose-dependent effect,10%,Dose-dependent effect,28%,4740 nM,55%,inhibition [6]: 28.1%; Activity [22]: 13%; Activity [23]: 59%; Activity [24]: 54%; Activity [25]: 11%; Activity [26]: Tde; Activity [27]: 57%; Activity [28]: 14%; Activity [29]: 14%; Activity [30]: 8.56 pixel; Activity [31]: 20%; inhibition [32]: 39.5%; Activity [33]: 21%; Activity [34]: Dose-dependent effect; Activity [35]: 22%; Activity [36]: Tde; Activity [37]: 51%; Activity [38]: 60%; Activity [39]: 21%; IC50 [40]: 430 nM
2.6%,Active,89.3%,CCOc1ccc2c(c1)Oc1cc(O)ccc1C21c2ccccc2C(=O)N1/N=C/c1cccc(O)c1 (centres undefined),65%,Tde,9.55 pixel,Dose-dependent effect,9%,22%,Dose-dependent effect,40 nM,20%,830 nM,12%,Dose-dependent effect,12%,Dose-dependent effect,24%,2230 nM,60%,Activity [22]: 12%; Activity [23]: 57%; Activity [24]: 56%; Activity [25]: 12%; Activity [26]: Tde; Activity [27]: 61%; Activity [28]: 12%; Activity [29]: 13%; Activity [30]: 11.5 pixel; Activity [31]: 15%; inhibition [32]: 0%; Activity [33]: 21%; Activity [34]: Dose-dependent effect; Activity [35]: 21%; Activity [36]: Tde; Activity [37]: 59%; Activity [38]: 64%; Activity [39]: 21%; IC50 [40]: 350 nM
